The test system of this test is Ba/F3 cells expressing EGFR Del19/C797S (EGFR DC). The experiment in a line: Proliferation inhibitory activity, Ba/F3 cells expressing EGFR Del19/C797S (CellTiter-Glo). In kind it is cell-based. The conditions noted are these: Mus musculus, BaF3, 72 hours of compound treatment. As for the experimental part:
The following experiments were performed to evaluate the inhibitory activity of the compounds according to the present disclosure on Ba/F3 proliferation expressing EGFR C797S, L861Q, G719A, S768I, L718Q, and/or G724S mutations.
For Ba/F3 cells, RPMI-1640 containing 10% FBS and 5 ng/ml IL-3 (R&D Systems) was used. Transduced Ba/F3 cells were cultured after adding 1 μg/ml puromycin (Invitrogen) to the same medium.
At 24 hours before treatment with the compounds, 3000 to 5000 cells were aliquoted into each well of a white clear bottom 96 well plate (Corning). The compounds were diluted in dimethyl sulfoxide (3 times dilution, 12 concentrations in total), and injected in an amount of 1 μl so that the final concentration was 0.2 nM to 5 uM. For measurement of living cells, after 72 hours of compound treatment, the cells were stored at room temperature for 10 min using CellTiter-Glo luminescentcell-viability reagent (Promega), and then luminescence intensity was measured using a reader (SynergyNeo, Biotek). Each test was repeated three times. Result values were calculated as the cell growth rate (%) compared to the control. The graphs were created using GraphPad Prism version 8.3.0 program and the GI50 values were calculated.
For orientation: ATP-based viability assays read luminescence as a measure of living cells.

Consider `COc1cc(N2CCC(N3CCN(C)CC3)CC2)ccc1Nc1cc(N2OCC[C@@H]2c2ccc3ccccc3c2)ncn1` [Example 89, (R)—N-(2-methoxy-4-(4-(4-methylpiperazin-1-yl)piperidin-1-yl)phenyl)-6-(3-(naphthalen-2-yl)isoxazolidin-2-yl)pyrimidin-4-amine], for which the concentration for 50% growth inhibition (GI50) was 50 to 500 nM.

In the case of `COc1cc(N2CCC(N3CCN(C)CC3)CC2)ccc1Nc1cc(N2OCC[C@@H]2c2ccc(F)c(F)c2)ncn1` [Example 90, (R)-6-(3-(3,4-difluorophenyl)isoxazolidin-2-yl)-N-(2-methoxy-4-(4-(4-methylpiperazin-1-yl)piperidin-1-yl)phenyl)pyrimidin-4-amine], the GI50 was less than 50 nM.

Regarding `CCc1cc(Nc2cc(N3OCC[C@@H]3c3ccc(F)cc3)ncn2)c(OC)cc1N1CCC(N2CCN(C)CC2)CC1` [Example 91, (R)—N-(5-ethyl-2-methoxy-4-(4-(4-methylpiperazin-1-yl)piperidin-1-yl)phenyl)-6-(3-(4-fluorophenyl)isoxazolidin-2-yl)pyrimidin-4-amine], the GI50 was less than 50 nM.

As to `CCc1cc(Nc2cc(N3OCC[C@@H]3c3cccc(F)c3F)ncn2)c(OC)cc1N1CCC(N2CCN(C)CC2)CC1` [Example 92, (R)-6-(3-(2,3-difluorophenyl)isoxazolidin-2-yl)-N-(5-ethyl-2-methoxy-4-(4-(4-methylpiperazin-1-yl)piperidin-1-yl)phenyl)pyrimidin-4-amine], the GI50 was less than 50 nM.

As to `CCc1cc(Nc2cc(N3OCC[C@@H]3c3ccc(F)cc3F)ncn2)c(OC)cc1N1CCC(N2CCN(C)CC2)CC1` [Example 93, (R)-6-(3-(2,4-difluorophenyl)isoxazolidin-2-yl)-N-(5-ethyl-2-methoxy-4-(4-(4-methylpiperazin-1-yl)piperidin-1-yl)phenyl)pyrimidin-4-amine], the concentration for 50% growth inhibition (GI50) is less than 50 nM.

Take `CCc1cc(Nc2cc(N3OCC[C@@H]3c3cc(F)ccc3F)ncn2)c(OC)cc1N1CCC(N2CCN(C)CC2)CC1` [Example 94, (R)-6-(3-(2,5-difluorophenyl)isoxazolidin-2-yl)-N-(5-ethyl-2-methoxy-4-(4-(4-methylpiperazin-1-yl)piperidin-1-yl)phenyl)pyrimidin-4-amine]: the concentration for 50% growth inhibition (GI50) is less than 50 nM.

Turning to `COc1cc(Nc2cc(N3OCC[C@@H]3c3ccc(F)cc3F)ncn2)ccc1N1CCC(N2CCN(C)CC2)CC1` [Example 95, (R)-6-(3-(2,4-difluorophenyl)isoxazolidin-2-yl)-N-(3-methoxy-4-(4-(4-methylpiperazin-1-yl)piperidin-1-yl)phenyl)pyrimidin-4-amine], the GI50 is less than 50 nM.

Consider `COc1cc(Nc2cc(N3OCC[C@@H]3c3ccc(F)cc3)ncn2)ccc1N1CCC(N2CCN(C)CC2)CC1` [Example 96, (R)-6-(3-(4-fluorophenyl)isoxazolidin-2-yl)-N-(3-methoxy-4-(4-(4-methylpiperazin-1-yl)piperidin-1-yl)phenyl)pyrimidin-4-amine], for which the GI50 is less than 50 nM.

Take `COc1cc(N2CCC(N3C[C@H]4C[C@@H]3CO4)CC2)ccc1Nc1cc(N2OCC[C@@H]2c2ccccc2)ncn1` [Example 97, N-(4-(4-((1R,4R)-2-oxa-5-azabicyclo[2.2.1]heptan-5-yl)piperidin-1-yl)-2-methoxyphenyl)-6-((R)-3-phenylisoxazolidin-2-yl)pyrimidin-4-amine]: the 50% growth inhibitory concentration (GI50) was less than 50 nM.

As to `CCN(CC)C1CCN(c2ccc(Nc3cc(N4OCC[C@@H]4c4ccccc4)ncn3)c(OC)c2)CC1` [Example 98, (R)—N-(4-(4-(diethylamino)piperidin-1-yl)-2-methoxyphenyl)-6-(3-phenylisoxazolidin-2-yl)pyrimidin-4-amine], the GI50 is less than 50 nM.

`COc1cc(N2CCN(C3CCN(C)CC3)C[C@H]2C)ccc1Nc1cc(N2OCC[C@@H]2c2ccccc2)ncn1` [Example 99, N-(2-methoxy-4-((R)-2-methyl-4-(1-methylpiperidin-4-yl)piperazin-1-yl)phenyl)-6-((R)-3-phenylisoxazolidin-2-yl)pyrimidin-4-amine]: the concentration for 50% growth inhibition (GI50) is less than 50 nM.

What is called GI50 is the concentration at which growth is held to half of that of the control.

For the origin of these results see US12534457B2, “Heteroaryl derivative compounds, and uses thereof” (Voronoi Inc., priority 2021, dated 2026).
